Results taken from patent publication US10183950B2, “Thienopyrimidine inhibitors of atypical protein kinase C” (Cancer Research Technology Limited, priority 2011, dated 2019).

molecular target: T1, full-length human PKCι (Homo sapiens, UniProt P41743); assay: PKCι IC50 IMAP fluorescence polarisation assay, full-length enzyme; assay type: biochemical; conditions: full length PKCi at 15 μM ATP; read-out: IC50 in IMAP assay against full length PKCi
T1 construct: Recombinant, full-length human PKCι expressed in Sf21 insect cells is also commercially available; purchased; host or cells: Sf21 insect cells
T1 sequence (P41743 1-596): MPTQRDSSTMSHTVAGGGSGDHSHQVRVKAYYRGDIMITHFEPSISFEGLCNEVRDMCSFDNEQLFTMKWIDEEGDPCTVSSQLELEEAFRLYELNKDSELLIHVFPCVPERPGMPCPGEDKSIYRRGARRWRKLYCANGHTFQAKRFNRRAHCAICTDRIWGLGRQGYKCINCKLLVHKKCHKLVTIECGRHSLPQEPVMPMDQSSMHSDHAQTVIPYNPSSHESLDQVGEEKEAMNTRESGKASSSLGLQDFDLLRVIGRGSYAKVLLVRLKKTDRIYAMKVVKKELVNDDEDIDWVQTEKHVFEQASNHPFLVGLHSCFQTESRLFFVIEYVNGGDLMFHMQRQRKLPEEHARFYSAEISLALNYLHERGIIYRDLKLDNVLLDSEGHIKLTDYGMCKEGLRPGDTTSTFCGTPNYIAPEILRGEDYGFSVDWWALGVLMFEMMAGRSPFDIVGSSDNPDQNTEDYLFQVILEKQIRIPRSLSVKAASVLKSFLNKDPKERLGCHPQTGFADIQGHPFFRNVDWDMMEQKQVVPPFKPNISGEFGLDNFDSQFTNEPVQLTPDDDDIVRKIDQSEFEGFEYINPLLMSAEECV
Description: Assays are based on the ability of PKCι to phosphorylate a commercially available peptide substrate in vitro. […] Recombinant, full-length human PKCι expressed in Sf21 insect cells is also commercially available. Recombinant, kinase-domain human PKCι is expressed and purified in-house.
The procedure below explains how dose response curves for inhibitors of PKCι are obtained.
Compounds to be tested are dissolved in 100% DMSO. […] 1 μl is plated into 384 well black low-binding flat bottomed assay plates which are used immediately. Dilutions and additions of compound to assay plates are carried out using Matrix WellMate® and Matrix PlateMate® Plus liquid handling systems.
The final concentration of peptide substrate in the assay is 100 nM. […] Relevant controls are included, namely no compound and no enzyme. […] The reaction is allowed to incubate for 60 minutes at room temperature, before the reaction is stopped and developed by the addition of 20 μl IMAP™ development reagent (Molecular Devices). IMAP development reagent consists of 0.25% (v/v) IMAP progressive binding reagent, 17% (v/v) IMAP progressive binding buffer A and 3% (v/v) IMAP progressive binding buffer B. The plates are then incubated for 2 hours at room temperature before being read using an appropriate plate reader, for example a Molecular Devices HT Analyst or a BMG Pherastar.

Compound	IC50 [µM]
Cc1cc(Nc2csc3c(N[C@@H]4CCNC4)nc(-c4ccncc4F)nc23)no1 [compound 496, 2-(3-Fluoro-pyridin-4-yl)-N*7*-(5-methyl-isoxazol-3-yl)-N*4*-(R)-pyrrolidin-3-yl-thieno[3,2-d]pyrimidine-4,7-diamine]	10 to 40
c1cc(-c2nc(N[C@@H]3CCNC3)c3sccc3n2)cc(Nc2ccc(-c3ccsc3)cc2)n1 [compound 617, (R)-Pyrrolidin-3-yl-{2-[2-(4-thiophen-3-yl-phenylamino)-pyridin-4-yl]-thieno[3,2-d]pyrimidin-4-yl}-amine]	0.1 to 1
O=C(Nc1cc(-c2nc(N[C@@H]3CCNC3)c3sccc3n2)ccn1)N1CCCCC1 [compound 584, Piperidine-1-carboxylic acid {4-[4-((R)-pyrrolidin-3-ylamino)-thieno[3,2-d]pyrimidin-2-yl]-pyridin-2-yl}-amide]	1 to 10
Cc1c(Br)sc2c(N[C@@H]3CCNC3)nc(-c3ccncc3)nc12 [compound 340, (6-Bromo-7-methyl-2-pyridin-4-yl-thieno[3,2-d]pyrimidin-4-yl)-(R)-pyrrolidin-3-yl-amine]	0.1 to 1
CC[C@@H](Nc1cc(-c2nc(N[C@@H]3CCNC3)c3sccc3n2)ccn1)c1ccccc1 [compound 590, {2-[2-((R)-1-Phenyl-propylamino)-pyridin-4-yl]-thieno[3,2-d]pyrimidin-4-yl}-(R)-pyrrolidin-3-yl-amine]	1 to 10
Fc1c(-c2nc(N[C@@H]3CCNC3)c3sccc3n2)ccnc1Nc1ccccc1 [compound 619, [2-(3-Fluoro-2-phenylamino-pyridin-4-yl)-thieno[3,2-d]pyrimidin-4-yl]-(R)-pyrrolidin-3-yl-amine]	10 to 40
Cc1cccc(Nc2csc3c(N[C@@H]4CCNC4)nc(-c4ccncc4F)nc23)c1 [compound 492, 2-(3-Fluoro-pyridin-4-yl)-N*4*-(R)-pyrrolidin-3-yl-N*7*-m-tolyl-thieno[3,2-d]pyrimidine-4,7-diamine]	10 to 40
Fc1ccc(Nc2csc3c(N[C@@H]4CCNC4)nc(-c4ccncc4F)nc23)cc1 [compound 493, N*7*-(4-Fluoro-phenyl)-2-(3-fluoro-pyridin-4-yl)-N*4*-(R)-pyrrolidin-3-yl-thieno[3,2-d]pyrimidine-4,7-diamine]	10 to 40
C[C@@H](Nc1cc(-c2nc(N[C@@H]3CCNC3)c3sccc3n2)ccn1)c1ccccc1 [compound 586, {2-[2-((R)-1-Phenyl-ethylamino)-pyridin-4-yl]-thieno[3,2-d]pyrimidin-4-yl}-(R)-pyrrolidin-3-yl-amine]	0.1 to 1
C[C@H](Nc1cc(-c2nc(N[C@@H]3CCNC3)c3sccc3n2)ccn1)c1ccccc1 [compound 587, {2-[2-((S)-1-Phenyl-ethylamino)-pyridin-4-yl]-thieno[3,2-d]pyrimidin-4-yl}-(R)-pyrrolidin-3-yl-amine]	0.1 to 1
c1cc(-c2nc(N[C@@H]3CCNC3)c3scc(-c4ccn[nH]4)c3n2)ccn1 [compound 403, [7-(2H-Pyrazol-3-yl)-2-pyridin-4-yl-thieno[3,2-d]pyrimidin-4-yl]-(R)-pyrrolidin-3-yl-amine]	< 0.1
c1cc(-c2nc(N[C@@H]3CCNC3)c3sccc3n2)cc(NC2CCCCC2)n1 [compound 623, [2-(2-Cyclohexylamino-pyridin-4-yl)-thieno[3,2-d]pyrimidin-4-yl]-(R)-pyrrolidin-3-yl-amine]	10 to 40

The remaining lines, values ahead:

IC50 [µM]	Compound
1 to 10	CCN(CC)C(=O)c1csc2c(NC[C@@H](N)Cc3ccccc3)nc(-c3ccncc3)nc12 [compound 552, 4-((S)-2-Amino-3-phenyl-propylamino)-2-pyridin-4-yl-thieno[3,2-d]pyrimidine-7-carboxylic acid diethylamide]
10 to 40	COc1cnccc1-c1c(C)sc2c(NC[C@@H](N)Cc3ccccc3)nc(-c3ccncc3)nc12 [compound 456, (S)-N*1*-[7-(3-Methoxy-pyridin-4-yl)-6-methyl-2-pyridin-4-yl-thieno[3,2-d]pyrimidin-4-yl]-3-phenyl-propane-1,2-diamine]
10 to 40	CC(C)(C)c1sc2c(NC[C@@H](N)Cc3ccccc3)nc(-c3ccncc3)nc2c1-c1ccccc1 [compound 451, (S)-N*1*-(6-tert-Butyl-7-phenyl-2-pyridin-4-yl-thieno[3,2-d]pyrimidin-4-yl)-3-phenyl-propane-1,2-diamine]
0.1 to 1	N[C@H](CNc1nc(-c2ccncc2F)nc2c(C#CC3(O)CCC3)csc12)Cc1ccccc1 [compound 507, 1-[4-((S)-2-Amino-3-phenyl-propylamino)-2-(3-fluoro-pyridin-4-yl)-thieno[3,2-d]pyrimidin-7-ylethynyl]-cyclobutanol]
10 to 40	N[C@H](CNc1nc(-c2ccncc2)nc2c(NC(=O)C3CCCCC3)csc12)Cc1ccccc1 [compound 474, Cyclohexanecarboxylic acid [4-((S)-2-amino-3-phenyl-propylamino)-2-pyridin-4-yl-thieno[3,2-d]pyrimidin-7-yl]-amide]
10 to 40	COc1ccc(C(F)(F)F)cc1-c1c(C)sc2c(NC[C@@H](N)Cc3ccccc3)nc(-c3ccncc3)nc12 [compound 464, (S)-N*1*-[7-(2-Methoxy-5-trifluoromethyl-phenyl)-6-methyl-2-pyridin-4-yl-thieno[3,2-d]pyrimidin-4-yl]-3-phenyl-propane-1,2-diamine]
1 to 10	N[C@H](CNc1nc(-c2ccncc2)nc2c(C#CCCCO)csc12)Cc1ccccc1 [compound 535, 5-[4-((S)-2-Amino-3-phenyl-propylamino)-2-pyridin-4-yl-thieno[3,2-d]pyrimidin-7-yl]-pent-4-yn-1-ol]
1 to 10	N[C@H](CNc1nc(-c2ccncc2)nc2c(Nc3ccncn3)csc12)Cc1ccccc1 [compound 489, N*4*-((S)-2-Amino-3-phenyl-propyl)-2-pyridin-4-yl-N*7*-pyrimidin-4-yl-thieno[3,2-d]pyrimidine-4,7-diamine]
10 to 40	CC(C)(C)c1cc2nc(-c3ccncc3)nc(NC[C@@H](N)Cc3ccccc3)c2s1 [compound 324, (S)-N*1*-(6-tert-Butyl-2-pyridin-4-yl-thieno[3,2-d]pyrimidin-4-yl)-3-phenyl-propane-1,2-diamine]
1 to 10	N[C@H](CNc1nc(-c2ccncc2F)nc2c(Nc3ccccc3)csc12)Cc1ccccc1 [compound 491, N*4*-((S)-2-Amino-3-phenyl-propyl)-2-(3-fluoro-pyridin-4-yl)-N*7*-phenyl-thieno[3,2-d]pyrimidine-4,7-diamine]
0.1 to 1	N[C@H](CNc1nc(-c2ccncc2F)nc2c(-c3cc[nH]c3)csc12)Cc1ccccc1 [compound 420, (S)-N*1*-[2-(3-Fluoro-pyridin-4-yl)-7-(1H-pyrrol-3-yl)-thieno[3,2-d]pyrimidin-4-yl]-3-phenyl-propane-1,2-diamine]
1 to 10	CC(C)NC(=O)c1csc2c(NC[C@@H](N)Cc3ccccc3)nc(-c3ccncc3)nc12 [compound 555, 4-((S)-2-Amino-3-phenyl-propylamino)-2-pyridin-4-yl-thieno[3,2-d]pyrimidine-7-carboxylic acid isopropylamide]
< 0.1	N[C@H](CNc1nc(-c2ccncc2)nc2c(C#CCCO)csc12)Cc1ccccc1 [compound 531, 4-[4-((S)-2-Amino-3-phenyl-propylamino)-2-pyridin-4-yl-thieno[3,2-d]pyrimidin-7-yl]-but-3-yn-1-ol]

same assay, conditions: full length PKCi at 15 μM ATP; read-out: IC50 in IMAP assay against full length PKCi (Activity)

IC50 [µM]	Compound
10 to 40	CN(C)CC(=O)N1CCc2c(sc3nc(-c4ccncc4)nc(NCCN)c23)C1 [compound 111, 1-[4-(2-Amino-ethylamino)-2-pyridin-4-yl-5,8-dihydro-6H-pyrido[4′,3′:4,5]thieno[2,3-d]pyrimidin-7-yl]-2-dimethylamino-ethanone]
1 to 10	N[C@H](CNc1nc(-c2ccncc2F)nc2sc3c(c12)CCCC3)Cc1ccccc1 [compound 101, (S)-N*1*-[2-(3-Fluoro-pyridin-4-yl)-5,6,7,8-tetrahydro-benzo[4,5]thieno[2,3-d]pyrimidin-4-yl]-3-phenyl-propane-1,2-diamine]
1 to 10	NC(CNc1nc(-c2ccncc2)nc2sc3c(c12)CCCC3)Cc1c[nH]c2ccccc12 (stereo in doubt) [compound 63, (S)-3-(1H-Indol-3-yl)-N*1*- (2-pyridin-4-yl-5,6,7,8-tetrahydro-benzo[4,5]thieno[2,3-d]pyrimidin-4-yl)-propane-1,2-diamine]
